# Test results reported in patent US11166958B2, “4-pyrazin-2-ylmethyl-morpholine derivatives and the use thereof as medicament” (Boehringer Ingelheim International GmbH, priority 2018, dated 2021).
# Assays:
# NMDA NR1/NR2B receptor = NMDA NR1/NR2B receptor (Homo sapiens (Human), UniProt Q13224); assay: In vitro NMDA NR1/NR2B cell assay (FLIPR, intracellular calcium induced by glycine/glutamate); type: cell-based; details: HEK293 NR1/NR2B, 20 μM glycine / 1 μM glutamate, read-out: In vitro NR2B affinity, IC50
# Experimental: A human HEK293 cell line with tetracyclin-inducible expression of NMDA NR1/NR2B receptor was used as a test system for compound efficacy and potency. The cell line was purchased from ChanTest, Catalog #CT6121. Compound activity was determined by measuring the effect of compounds on intracellular calcium concentration induced by glycine/glutamate agonism in a FLIPRtetra system (Molecular Devices).
# The cells were obtained as frozen cells in cryo-vials and stored until use at −150° C. Cells were grown in culture medium (DMEM/F12, 10% FBS, 5 μg/mL Blasticidin, 150 μg/mL Zeozin, 500 μg/mL Geneticin). […] For sub-culturing the cells were detached from flasks by Versene. For the assay, cells were detached, washed twice with induction medium (DMEM/F12 without glutamine, 10% FBS, 2 μg/mL Tetracycline, 2 mM Ketamine) and seeded to 384 well pure coat amine plates (Becton Dickinson, 50000 cells per well in 50 μl) 48 h prior to assay in induction medium.
# The test compounds were dissolved in 100% DMSO at a concentration of 10 mM and in a first step diluted in DMSO to a concentration of 5 mM, followed by serial dilution steps in 100% DMSO. Dilution factor and number of dilution steps may vary according to needs. Typically 8 different concentrations by 1:5 dilutions were prepared in duplicate, further intermediate dilutions (1:37.5) of the substances were carried out with aqueous assay buffer (137 mM NaCl, 4 mM KCl, 1.8 mM CaCl2), 10 mM HEPES, 10 mM Glucose, pH 7.4) resulting in a compound concentration 3 times above the final test concentration and DMSO at 2.7% resulting in 0.9% final DMSO concentration in the assay.
# At the assay day cells were washed 3× with assay buffer (as described above), 10 μL buffer remained in the wells after washing. 10 μL Ca kit loading buffer (AAT Bioquest; prepared from the kit containing the following components: Component A: Fluo-8 NW dissolved in 200 μL DMSO and 20 μl of this solution are mixed with 10 ml buffer prepared out of component B and C, Component B: 10× Pluronic® F127 Plus diluted 1:10 in component C, Component C: HHBS (Hanks with 20 mM Hepes) was added to the cells and the plates were incubated with lid for 60 minutes at room temperature. 20 μl assay buffer containing 60 μM glycine (20 μM final) and 3 μM glutamate (1 μM final) was added to column 1-23, column 24 got assay buffer without glycine/glutamate to serve as negative unstimulated control. Fluorescence (indicating the calcium influx as a result of the NR1/NR2B ion channel activation) was read on the FLIPRtetra device for 60 seconds to monitor the glutamate induced effects. After 2 minutes 20 μL of compound dilution prepared as described above or controls (row 1-22) in assay buffer were carefully added to the wells. […] The average of 2 measurements at 5 minutes and 5 min 10 seconds after compound addition is calculated and further used for IC50 calculations. Each assay microtiter compound dilution plate contained wells (in column 23 or 24) with DMSO controls instead of compound as controls for glycine/glutamate induced fluorescence (high controls) and wells with 1 μM of a reference NR2B NAM as low controls (Compound 22; reference: Layton, Mark E et al, ACS Chemical Neuroscience 2011, 2(7), 352-362).
# The output file of the reader contains the well number and measured average fluorescence units. For data evaluation and calculation, the measurement of the low control was set as 0% control and the measurement of the high control was set as 100% control. The IC50 values were calculated using the standard 4 parameter logistic regression formula. Calculation: [y=(a−d)/(1+(x/c)^b)+d], a=low value, d=high value; x=conc M; c=IC50 M; b=slope.
# Nav1.6 channel = Nav1.6 channel (Homo sapiens (Human), UniProt Q9UQD0); assay: Nav1.6 inhibition, IonWorks Quattro electrophysiology; type: cell-based
# Experimental: IonWorks Quattro electrophysiological platform
# The compounds were prepared in DMSO at 300× the final assay concentrations of 1 and 5 μM.
# The 300× DMSO stock solutions were transferred into assay plates where 2 μl per well of each 300× stock solution were placed. All assay plates were stored at −80° C. until the day of assay.
# On the day of the assay, the appropriate assay plate was thawed at room temperature, centrifuged, and 198 μl of external recording solution was added and mixed thoroughly. This provided a 1:100 dilution. A further 1:3 dilution occurred upon addition to the cells in the IonWorks Quattro electrophysiological platform, giving a 1:300 dilution in total. On each assay plate, at least 8 wells were reserved for vehicle control (0.3% DMSO) and at least 8 wells for each positive control specific to the cell line tested. The positive controls were tested at a maximal blocking and an approximate IC50 concentration. As positive control Lidocaine at concentrations of 30 and 1000 μM was used.
# The solutions for recording Nav1.6 currents were as follows:
# Amphotericin B was used to obtain electrical access to the cell interior at a final concentration of 200 μg/ml in internal recording solution.
# State-dependent inhibition: Sodium channels when held at depolarized potential or long test pulse, the channels open and inactivate and then stay inactivated until the membrane potential is stepped back to hyperpolarized potentials, when the inactivated channels recover from inactivation into closed state.
# Cells were held at −120 mV. In order to completely inactivate the sodium channels (pulse 1), the cells were pulsed to +0 mV for 2500 ms and stepped back to −120 mV for 10 ms (to completely recover from inactivation, however channels that had drugs bound to them will not recover from inactivation) before stepping to +0 mV for 20 ms (pulse 2).
# Assay Control Results Both the positive and vehicle control data associated with each cell line assayed are shown below as an example. The mean is shown for each positive and negative control as solid symbol with the total number of individual well replicates given next to the solid symbol. In addition, the individual data of each well are shown on the graph as open symbols so that the variation about the mean value can be readily assessed.
# Shown below are the assay controls for the Nav1.6 IonWorks Quattro assay.
# Tables 3 and 4 show the normalized percentage inhibition of Nav1.6 channel. […] (see also the figure Assay Control Results above).
# NMDA NR1/NR2B receptor, sequence (Q13224 27-1484, other chains not shown): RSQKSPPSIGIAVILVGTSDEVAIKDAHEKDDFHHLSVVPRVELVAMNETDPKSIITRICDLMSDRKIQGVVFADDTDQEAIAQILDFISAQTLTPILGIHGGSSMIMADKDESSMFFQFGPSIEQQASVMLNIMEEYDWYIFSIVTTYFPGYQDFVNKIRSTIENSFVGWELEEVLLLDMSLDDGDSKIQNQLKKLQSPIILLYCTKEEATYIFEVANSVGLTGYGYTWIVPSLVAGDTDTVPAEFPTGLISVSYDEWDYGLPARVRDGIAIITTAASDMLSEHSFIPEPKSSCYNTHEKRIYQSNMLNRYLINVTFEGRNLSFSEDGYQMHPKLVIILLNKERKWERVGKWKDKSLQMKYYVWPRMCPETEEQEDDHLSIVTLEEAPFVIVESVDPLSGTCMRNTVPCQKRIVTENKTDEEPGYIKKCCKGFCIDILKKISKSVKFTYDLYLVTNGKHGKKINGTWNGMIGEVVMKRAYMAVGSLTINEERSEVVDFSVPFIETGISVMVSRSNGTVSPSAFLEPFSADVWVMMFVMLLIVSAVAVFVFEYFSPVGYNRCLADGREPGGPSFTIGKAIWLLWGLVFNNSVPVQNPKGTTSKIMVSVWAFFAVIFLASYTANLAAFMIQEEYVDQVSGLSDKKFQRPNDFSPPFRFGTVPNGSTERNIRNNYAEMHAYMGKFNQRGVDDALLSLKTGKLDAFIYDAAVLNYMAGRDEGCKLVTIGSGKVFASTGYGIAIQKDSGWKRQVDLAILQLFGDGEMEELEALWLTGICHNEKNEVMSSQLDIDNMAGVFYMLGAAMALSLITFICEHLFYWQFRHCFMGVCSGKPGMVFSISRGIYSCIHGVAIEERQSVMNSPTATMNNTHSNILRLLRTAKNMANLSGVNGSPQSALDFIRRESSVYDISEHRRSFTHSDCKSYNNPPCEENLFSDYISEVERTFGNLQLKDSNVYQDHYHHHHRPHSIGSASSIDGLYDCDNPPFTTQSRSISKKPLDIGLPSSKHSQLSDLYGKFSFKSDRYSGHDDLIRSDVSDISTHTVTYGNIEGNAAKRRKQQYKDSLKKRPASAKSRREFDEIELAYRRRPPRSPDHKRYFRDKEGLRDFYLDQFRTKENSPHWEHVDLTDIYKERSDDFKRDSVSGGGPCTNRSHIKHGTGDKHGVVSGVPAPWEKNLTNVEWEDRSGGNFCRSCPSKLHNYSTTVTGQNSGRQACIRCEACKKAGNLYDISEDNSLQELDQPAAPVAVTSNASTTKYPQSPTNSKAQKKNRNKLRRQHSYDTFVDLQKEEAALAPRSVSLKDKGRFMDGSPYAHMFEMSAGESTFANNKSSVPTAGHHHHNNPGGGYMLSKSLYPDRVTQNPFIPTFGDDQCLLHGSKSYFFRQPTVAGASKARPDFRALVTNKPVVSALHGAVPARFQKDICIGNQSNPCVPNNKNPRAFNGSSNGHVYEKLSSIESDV
# Nav1.6 channel, sequence (Q9UQD0 whole entry): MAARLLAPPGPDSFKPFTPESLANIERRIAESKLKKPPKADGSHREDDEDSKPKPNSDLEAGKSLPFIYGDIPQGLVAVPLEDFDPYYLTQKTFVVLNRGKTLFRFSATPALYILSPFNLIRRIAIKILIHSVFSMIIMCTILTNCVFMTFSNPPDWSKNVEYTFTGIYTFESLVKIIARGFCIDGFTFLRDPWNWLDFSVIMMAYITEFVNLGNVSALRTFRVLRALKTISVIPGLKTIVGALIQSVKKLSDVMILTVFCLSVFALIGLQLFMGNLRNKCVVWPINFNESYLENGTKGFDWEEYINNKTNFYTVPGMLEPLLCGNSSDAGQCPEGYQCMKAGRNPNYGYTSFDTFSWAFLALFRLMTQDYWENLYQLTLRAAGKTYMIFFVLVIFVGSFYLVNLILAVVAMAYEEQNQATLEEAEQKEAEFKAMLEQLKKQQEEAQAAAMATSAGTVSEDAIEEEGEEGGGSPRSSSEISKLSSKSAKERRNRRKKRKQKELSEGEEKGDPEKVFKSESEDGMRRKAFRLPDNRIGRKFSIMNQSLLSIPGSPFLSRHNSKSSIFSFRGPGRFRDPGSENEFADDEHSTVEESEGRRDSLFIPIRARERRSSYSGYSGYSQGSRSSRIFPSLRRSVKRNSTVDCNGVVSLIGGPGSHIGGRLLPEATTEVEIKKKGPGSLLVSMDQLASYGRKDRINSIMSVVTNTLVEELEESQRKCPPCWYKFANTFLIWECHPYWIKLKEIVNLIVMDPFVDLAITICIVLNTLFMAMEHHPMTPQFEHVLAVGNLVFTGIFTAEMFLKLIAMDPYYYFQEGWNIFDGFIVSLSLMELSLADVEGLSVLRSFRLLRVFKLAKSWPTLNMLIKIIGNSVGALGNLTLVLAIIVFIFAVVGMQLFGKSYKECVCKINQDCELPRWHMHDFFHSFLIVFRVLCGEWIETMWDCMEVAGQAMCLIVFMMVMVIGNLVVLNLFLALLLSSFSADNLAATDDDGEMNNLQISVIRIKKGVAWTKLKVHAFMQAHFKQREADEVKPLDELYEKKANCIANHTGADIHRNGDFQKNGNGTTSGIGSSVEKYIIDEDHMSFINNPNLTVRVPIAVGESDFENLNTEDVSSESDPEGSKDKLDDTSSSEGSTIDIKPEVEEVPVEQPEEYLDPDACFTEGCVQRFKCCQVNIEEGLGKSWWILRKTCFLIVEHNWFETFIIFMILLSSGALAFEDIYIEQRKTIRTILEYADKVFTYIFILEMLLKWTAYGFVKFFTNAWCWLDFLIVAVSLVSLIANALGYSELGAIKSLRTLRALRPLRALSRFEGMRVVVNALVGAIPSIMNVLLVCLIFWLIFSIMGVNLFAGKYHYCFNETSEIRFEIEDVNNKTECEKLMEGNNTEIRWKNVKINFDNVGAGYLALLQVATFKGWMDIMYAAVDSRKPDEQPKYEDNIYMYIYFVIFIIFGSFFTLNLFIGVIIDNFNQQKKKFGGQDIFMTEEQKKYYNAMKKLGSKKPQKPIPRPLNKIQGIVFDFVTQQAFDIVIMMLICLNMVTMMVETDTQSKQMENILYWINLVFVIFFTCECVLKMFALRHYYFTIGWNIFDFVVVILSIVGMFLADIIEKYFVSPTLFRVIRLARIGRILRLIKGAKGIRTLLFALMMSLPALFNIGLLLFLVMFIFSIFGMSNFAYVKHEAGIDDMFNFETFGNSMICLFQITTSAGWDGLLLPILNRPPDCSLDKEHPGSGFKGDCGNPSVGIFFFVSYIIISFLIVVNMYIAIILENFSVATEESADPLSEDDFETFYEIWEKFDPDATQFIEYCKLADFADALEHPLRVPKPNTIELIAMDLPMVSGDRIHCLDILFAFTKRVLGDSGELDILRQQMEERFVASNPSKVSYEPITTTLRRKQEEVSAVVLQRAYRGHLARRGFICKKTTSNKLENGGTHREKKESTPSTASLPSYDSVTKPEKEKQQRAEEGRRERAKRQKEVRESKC
IC50 (NMDA NR1/NR2B receptor),SMILES,further results
197 nM,CNC(=O)[C@@H]1CN(Cc2cnc(Oc3c(F)cccc3F)cn2)CCO1 [Example 35],
,"CCCCNc1ccc(C(=O)OCCN(C)C)cc1 [Tetracaine, reference compound]",state-dependent inhibition of Nav1.6 (Nav1.6 channel; FIG. 1): much stronger at depolarized potentials than at hyperpolarized potential
542 nM,CNC(=O)[C@@H]1CN(Cc2cnc(Oc3c(C)cccc3F)cn2)CCO1 [Example 36],
644 nM,CNC(=O)[C@@H]1CN(Cc2cnc(Oc3ccccc3)cn2)CCO1 [Example 34],
,"CCN(CC)CC(=O)Nc1c(C)cccc1C [Lidocaine, reference compound]","inhibition at 1000 µM (Nav1.6 channel; read-out: maximum inhibition at P1 (not normalized)): 46.4 to 47.2%; inhibition of evoked Nav1.6 currents (Nav1.6 channel; reference compound, FIG. 2): inhibited evoked currents in a concentration and use dependent manner"
